Measurements as given in patent publication EP1057484A1, “CELL DEATH INHIBITORS” (priority 1998, dated 1999).
Like-named read-outs stand apart in the source and are kept apart here.

What was measured:
[1] = tested on: Porcine Ovarian Granulosa Cells; assay: Test Example 7: inhibition of SNP-induced apoptosis of undifferentiated POGC; assay type: cell-based; details: Sus scrofa, for complete inhibition of apoptosis, SNP 0.5 mM, read-out: Minimum effective concentration
[2] = tested on: Porcine ovarian granulosa cells (POGC); assay: Test Example 1: inhibition of SNP-induced apoptosis of porcine ovarian granulosa cells; assay type: cell-based; details: Sus scrofa, for complete inhibition of apoptosis, SNP 0.5 mM, read-out: Minimum effective concentration
Description: Porcine ovarian granulosa cells (POGC) were isolated from porcine ovaries and cultured following to a known method (Endocrinology, Vol. 136, p. 3470, 1995). Namely, porcine ovaries were rinsed with PBS buffer, and POGC were collected by aspiration from antral follicles with a syringe. Cell fraction was recovered as a precipitate by centrifugation of the suspension. The operation of suspending the cell fraction into PBS buffer and subjecting the resulting suspension to centrifugation was repeated three times to wash the cells. The POGC obtained as a precipitate were suspended again into a culture medium (DMEM containing 10% fetal bovine serum) and cell clumps were disrupted by pipetting. The cell suspension was passed through a mesh to remove contaminating tissue fragments, and then pipetted in 24-well plates for cell culture. The cell suspension was cultured for 2 days in a CO2 incubator according to a conventional procedure (37°C, 5% CO2). Then, the medium was refreshed to remove floating cells and the culture was continued for further 2 to 3 days until the cells reached subconfluency (0.7 to 2 × 10^5 cell/well). After the attaching cells were washed with serum-free medium, they were cultured in a serum-free DMEM (containing 5 µg/mL of transferrin, and 40 ng/mL of hydrocortisone, 4 mg/mL of bovine serum albumin (BSA), 100 nM androstendione).
The cell death was also confirmed by MTT assay. […] The results are shown in Table 1 where a minimum effective concentration of each compound for complete inhibition of apoptosis is described.

4B2 cells = assay: Test Example 9: SNP-induced apoptosis of 4B2 granulosa cell line; assay type: cell-based; details: Mus musculus; 10 µM added prior to SNP (0.5 mM); observation after 24 hours; read-out: cells alive
Method: Mouse granulosa cells were transfected with SV40 T antigen and cDNA of steroidogenic factor-1 (SF-1/Ad4BP) to establish a cell line, named 4B2. The cell secretes progesterone in response to protein kinase-A. The 4B2 cells were cultured in 48-well culture plates until subconfluency in DMEM containing 10% fetal bovine serum in a CO2 incubator according to a conventional manner. After the medium was switched to DMEM containing 2% fetal bovine serum, SNP (0.5 mM) was added thereto. […] Then, prior to the addition of SNP, Test Compound 13, 14, 17, 20, 24 or 25 (10 µM each) was added to the present medium and observations on cells were made after 24 hours.

cerebellar granule cells [3] = assay: Test Example 10: hydrogen peroxide-induced death of cerebellar granule cells; assay type: cell-based, rats; details: Rattus norvegicus, read-out: cells alive
Method: According to a known method (A Dissection and Tissue Culture Manual of the Nervous System, p. 211, 1989, Alan R, Liss, Inc.), cerebellar granule cells were isolated from the cerebellum of 7 days old rats and cultured. Namely, after conducting isolation procedures described in the above literature, the resulting cells were resuspended in DMEM containing 10% fetal bovine serum, 25 mM KCl and 2 mM glutamine, and seeded in poly-lysine coated plates. After the cells were cultured in a CO2 incubator for 48 hours according to a conventional method, cytosine-1-β-D(+)-arabinofuranoside (Ara-C) (10 µM) was added thereto, and the cell was continued to culture. The following experiments were conducted with the cells of 7 to 14 days old from the start day of the culture, the cells having completed neurite extension sufficiently. […] Furthermore, experiments were conducted by increasing a concentration of hydrogen peroxide to 300 µM. In the cases that Test Compound 18 (10 µM), Test Compound 19 (10 µM), or Test Compound 20 (10 µM) were added, about 90%, 90%, and 70% of the cells were alive, respectively, on observations after 16 hours.

erythrocytes = assay: Test Example 13: hydrogen peroxide-induced death of erythrocytes; assay type: cell-based; details: Homo sapiens, Erythrocyte; 20 µM added prior to hydrogen peroxide (300 µM); observation after 24 hours; read-out: ratios of dead erythrocytes (dark ghost cells)
Method: After human blood (2 mL) was centrifuged at 1000 rpm for 5 min, the resulting cell pellets containing erythrocytes were washed three times with a DMEM medium and the cells were resuspended in the same medium (15 mL) (about 5 × 10^8 cells/mL). Ten µL of this suspension was added with 10% FCS/DMEM (10 mL), and the cells were plated in 48 well plates (500 µL/well). When hydrogen peroxide (300 µM) was added to the erythrocyte culture solution and the cells were cultured for 24 hours, all erythrocytes were dead on observations under a light microscopy (all erythrocytes were subjected to shape changes from a bright, round and concave shape into a dark hemolytic ghost through multiple shape changes). On the other hand, Test Compound 14 (30 µM), Test Compound 18 (10 µM), Test Compound 19 (20 µM) or Test Compound 20 (20 µM) was added prior to the hydrogen peroxide addition.

cerebellar granule cells [4] = assay: Test Example 11: SNP-induced death of cerebellar granule cells; assay type: cell-based, rats; details: Rattus norvegicus; 10 µM added prior to SNP (1.5 µM); observation after 12 hours; read-out: cells alive
[5] = judged at 18 hours after SNP treatment
[6] = judged at 30 hours after SNP treatment

`Cc1[nH]c2ccccc2c1C1=C(c2c(C)[nH]c3ccccc23)C(=O)N(C)C1=O` [Compound 47] showed a minimal effective concentration [1, 5] of 10 µM.

Compound `CN1C(=O)C(c2c[nH]c3ccc(Br)cc23)=C(c2c[nH]c3ccc(Br)cc23)C1=O` [Compound 42] has a minimal effective concentration [1, 5] of 1 µM.

`CN1C(=O)C(c2c[nH]c3ccccc23)C(c2cn(CCCN)c3ccccc23)C1=O` (stereo not drawn) [Compound 33] gave a minimal effective concentration [1, 5] of 10 µM.

`CN1C(=O)C(Br)=C(c2cn(C(=O)OC(C)(C)C)c3ccccc23)C1=O` [Compound 2] was tested, and the minimal effective concentration ([2]; cells observed after 48 hours) was 10 µM.

`O=C1C(c2c[nH]c3ccccc23)=C(c2c[nH]c3ccccc23)C(=O)N1c1ccccc1` [Compound 48] was tested, and the minimal effective concentration [1, 5] was 1 µM.

`O=C1NC(=O)C(c2c[nH]c3ccccc23)=C1c1c[nH]c2ccccc12` [Compound 13] was tested, and the minimal effective concentration ([1]; cells observed after 48 hours) was 5 µM and the viability at 10 µM (4B2 cells) was over 95%.

`Cc1ccc2[nH]cc(C3=C(Br)C(=O)N(C)C3=O)c2c1` [Compound 3] showed a minimal effective concentration ([2]; cells observed after 48 hours) of 3 µM.

`COc1cccc2[nH]cc(C3=C(c4c[nH]c5cccc(OC)c45)C(=O)N(C)C3=O)c12` [Compound 45] showed a minimal effective concentration [1, 5] of 3 µM.

`c1ccc(N2CC(c3c[nH]c4ccccc34)C(c3c[nH]c4ccccc34)C2)cc1` (stereo not drawn) [Compound 34] showed a minimal effective concentration [1, 5] of 0.3 µM.

`CN1CCCC1CCn1cc(C2=C(c3c[nH]c4ccccc34)C(=O)NC2=O)c2ccccc21` (stereo not drawn) [Compound 28] gave a minimal effective concentration [1, 5] of 3 µM.

`Cc1cccc2c(C3=C(Br)C(=O)N(C)C3=O)cn(C(=O)OC(C)(C)C)c12` [Compound 7] was tested, and the minimal effective concentration ([2]; cells observed after 48 hours) was 7 µM.

In the case of `CN(C)CC1CCn2c(c(C3=C(c4cn(C)c5ccccc45)C(=O)NC3=O)c3ccccc32)C1` (stereo not drawn) [Compound 29], the minimal effective concentration [1, 5] was 1 µM.

`CN1C(=O)C(c2c[nH]c3ccccc23)=C(c2c[nH]c3ccc(Cl)cc23)C1=O` [Compound 24] showed a minimal effective concentration ([1]; cells observed after 48 hours) of 3 µM and a viability at 10 µM (4B2 cells) of over 95%.

`Cc1ccc2c(C3=C(c4c[nH]c5cc(C)ccc45)C(=O)N(C)C3=O)c[nH]c2c1` [Compound 38] showed a minimal effective concentration [1, 5] of 0.3 µM.

Compound `CN1C(=O)C(c2c[nH]c3ccccc23)=C(c2cn(CCCN)c3ccccc23)C1=O` [Compound 19] has a minimal effective concentration ([1]; cells observed after 48 hours) of 0.7 µM, a viability at 10 µM (cerebellar granule cells [3]; 10 µM added prior to hydrogen peroxide (10 µM), observation after 12 hours) of over 95% and a viability at 10 µM (cerebellar granule cells [3]; 10 µM, hydrogen peroxide 300 µM, observation after 16 hours) of about 90%. It also gave a cytotoxicity at 20 µM (erythrocytes) of 10% and a viability at 10 µM (cerebellar granule cells [4]) of over 95%.

`Cn1cc(C2=C(c3cn(CCCN)c4ccccc34)C(=O)NC2=O)c2ccccc21` [Compound 26] was tested, and the minimal effective concentration ([1]; cells observed after 48 hours) was 1 µM.

Compound `O=C1C(c2c[nH]c3ccccc23)=C(c2c[nH]c3ccccc23)C(=O)N1O` [Compound 12] has a minimal effective concentration ([1]; cells observed after 48 hours) of 15 µM.

For `CN1C(=O)C(c2c[nH]c3ccccc23)=C(c2cn(C)c3ccccc23)C1=O` [Compound 35], the minimal effective concentration [1, 5] was 10 µM.

`NCCCn1cc(C2=C(c3c[nH]c4ccccc34)C(=O)NC2=O)c2ccccc21` [Compound 17] gave a minimal effective concentration [1, 6] of 3 µM and a viability at 10 µM (4B2 cells) of over 95%.

`CN1C(=O)C(Br)=C(c2c[nH]c3ccccc23)C1=O` [Compound 1, 2-bromo-3-(1H-indol-3-yl)-N-methylmaleimide] showed a minimal effective concentration [2, 5] of 15 µM.

Compound `Cc1[nH]c2ccccc2c1C1=C(c2c[nH]c3ccccc23)C(=O)N(C)C1=O` [Compound 46] has a minimal effective concentration [1, 5] of 10 µM.

For `CN1C(=O)C(c2c[nH]c3ccccc23)=C(c2cn(CCCNC(=O)c3ccccc3)c3ccccc23)C1=O` [Compound 21], the minimal effective concentration ([1]; cells observed after 48 hours) was 7 µM.

Work on `O=C1OC(=O)C(c2c[nH]c3ccccc23)=C1c1c[nH]c2ccccc12` [Compound 11] yielded a minimal effective concentration [1, 6] of 10 µM.

`Cc1cccc2c(C3=C(Br)C(=O)N(C)C3=O)c[nH]c12` [Compound 4] gave a minimal effective concentration ([2]; cells observed after 48 hours) of 10 µM.

Compound `CN1C(=O)C(Br)=C(c2cn(C(=O)OC(C)(C)C)c3ccc(Cl)cc23)C1=O` [Compound 8] has a minimal effective concentration ([2]; cells observed after 48 hours) of 7 µM.

`COc1ccc2[nH]cc(C3=C(c4c[nH]c5ccc(OC)cc45)C(=O)N(C)C3=O)c2c1` [Compound 44] was tested, and the minimal effective concentration [1, 5] was 1 µM.

For `CCN(CC)c1ccc2c(-c3ccc(S(=O)(=O)NCCCn4cc(C5=C(c6cn(C)c7ccccc67)C(=O)NC5=O)c5ccccc54)cc3S(=O)(=O)[O-])c3ccc(=[N+](CC)CC)cc-3oc2c1` [Compound 31], the minimal effective concentration [1, 6] was 3 µM.

In the case of `CN1C(=O)C(Br)=C(c2c[nH]c3ccc(Cl)cc23)C1=O` [Compound 5], the minimal effective concentration ([2]; cells observed after 48 hours) was 15 µM.

`CN1C(=O)C(c2cn(C)c3ccccc23)=C(c2cn(C)c3ccccc23)C1=O` [Compound 36] was tested, and the minimal effective concentration [1, 5] was 10 µM.

`CN1C(=O)C(c2c[nH]c3ccccc23)=C(c2c[nH]c3ccccc23)C1O` (stereo not drawn) [Compound 16] was tested, and the minimal effective concentration ([1]; cells observed after 48 hours) was 5 µM.

In the case of `CN1C(=O)C(c2c[nH]c3ccccc23)C(c2c[nH]c3ccccc23)C1=O` (stereo not drawn) [Compound 30], the minimal effective concentration ([1]; cells observed after 48 hours) was 10 µM.

`CN1C(=O)C(c2c[nH]c3ccccc23)=C(c2cn(C(=O)OC(C)(C)C)c3ccccc23)C1=O` [Compound 22] was tested, and the minimal effective concentration ([1]; cells observed after 48 hours) was 5 µM.

`Cc1ccc2c(c1)c(C1=C(Br)C(=O)N(C)C1=O)cn2C(=O)OC(C)(C)C` [Compound 6] was tested, and the minimal effective concentration ([2]; cells observed after 48 hours) was 3 µM.

Compound `CN1C(=O)C(Br)=C(c2cn(C)c3ccccc23)C1=O` [Compound 9, 2-bromo-3-(1-methyl-1H-indol-3-yl)-N-methylmaleimide] has a minimal effective concentration [2, 5] of 15 µM.

`CCCCCCCn1cc(C2=C(Br)C(=O)N(C)C2=O)c2ccccc21` [Compound 10] was tested, and the minimal effective concentration ([2]; judged at 35 hours after SNP treatment) was 3 µM.

`CN(C)CCCn1cc(C2=C(c3cn(CCCN(C)C)c4ccccc34)C(=O)N(C)C2=O)c2ccccc21` [Compound 37] gave a minimal effective concentration [1, 5] of 10 µM.

`CN1C(=O)C(c2c[nH]c3ccc(F)cc23)=C(c2c[nH]c3ccc(F)cc23)C1=O` [Compound 41] showed a minimal effective concentration [1, 5] of 10 µM.

In the case of `CN1C(=O)C(c2cn(C(=O)OC(C)(C)C)c3ccccc23)=C(c2cn(C(=O)OC(C)(C)C)c3ccccc23)C1=O` [Compound 23], the minimal effective concentration ([1]; cells observed after 48 hours) was 5 µM.

In the case of `O=C1C(c2c[nH]c3ccccc23)=C(c2c[nH]c3ccccc23)C(=O)N1Cc1ccccc1` [Compound 49], the minimal effective concentration [1, 5] was 1 µM.

With `CN1C(=O)C(c2c[nH]c3ccccc23)=C(c2c[nH]c3ccc(Cl)cc23)C1=O` [Compound 43] the minimal effective concentration [1, 5] was 3 µM.

For `Cc1ccc2[nH]cc(C3=C(c4c[nH]c5ccc(C)cc45)C(=O)N(C)C3=O)c2c1` [Compound 40], the minimal effective concentration [1, 5] was 1 µM.

In the case of `Cc1cccc2c(C3=C(c4c[nH]c5ccccc45)C(=O)N(C)C3=O)c[nH]c12` [Compound 39], the minimal effective concentration [1, 5] was 3 µM.

Work on `CCCN1C(=O)C(c2c[nH]c3ccccc23)=C(c2c[nH]c3ccccc23)C1=O` [Compound 15] yielded a minimal effective concentration ([1]; cells observed after 48 hours) of 3 µM.

`N=C(N)SCCCn1cc(C2=C(c3c[nH]c4ccccc34)C(=O)NC2=O)c2ccccc21` [Compound 27] gave a minimal effective concentration ([1]; cells observed after 48 hours) of 1 µM.
